Structures can show the parent of a compound that is named as a salt. Where two headings read alike, the source gives them in different places.
Key:
[1] = for Conversion: 1 ml H2O, 1500 mg LiBr, 100 mg spruce powder, 2 mg acid, 140° C., 30 min
[2] = Hydrolysis of biomass in concentrated solutions of different salts; conditions: for conversion/hydrolysis of polysaccharides (in words): concentration of salt 60%
From the text: Hydrolysis of biomass in different metal halide solutions was investigated.

[3] = Extraction of CaBr2 from CaBr2-glucose solution with n-butanol/hexane; assay type: physicochemical
Procedure: As mentioned above, CaBr2 can work as effectively as LiBr to hydrolyze lignocellulosic biomass. CaBr2 was extracted from glucose with the butanol extraction method as described above (A). […] More than half of the initial glucose was extracted to the solvent phase. […] Only 10 mg glucose was extracted into 5:5 butanol/hexane.

[4] = test system: Saccharomyces cerevisiae; test: Glucose fermentation to ethanol in the presence of residual salt; assay type: cell-based
From the text: Complete separation of LiBr from sugars is difficult and expensive. Small amounts of LiBr or CaBr2 may be retained in the sugar product stream generated by the processes of this invention. If the sugars are intended for use for fermentation, the residual salt could potentially affect the fermentation. […]

[5] = Extraction of LiBr from LiBr-glucose solution with n-butanol/hexane; assay type: physicochemical; set-up: Glucose retained/extraction steps: unit not given here; conditions: for LiBr content left in the LiBr-glucose solution: butanol to hexane 7:3; for LiBr extracted / LiBr/sugar (separation efficiency) / Glucose extracted: organic phase from the 1st extraction; for glucose extracted into the butanol phase: butanol to hexane ratio 7/3; for Glucose retained after extraction: 200 mg glucose and 1500 mg LiBr in 1 mL water
From the text: A LiBr-glucose solution was first used to test the butanol extraction.

[6] = Solubility in water and organic solvent; assay type: physicochemical; conditions: 60% salt in water
From the text: After the extraction, any small amount of LiBr in the sugar stream can be removed by means of ion exchange resin, crystallization, precipitation with anti-solvent, and precipitation with sodium carbonate, as described in Examples herein.

[7] = Crystallization/precipitation of glucose by ethanol; assay type: physicochemical; conditions: 400 mg glucose, 2 mL ethanol, 120° C. then cooled to room temperature
Procedure: Glucose was dissolved in ethanol by heating to 120° C. to facilitate dissolution. The resulting clear solution was then cooled to room temperature with stirring to allow sugar crystallization (or precipitation). Precipitated glucose was filtered and washed with ethanol. However, a small amount of glucose was found dissolved in ethanol, and therefore glucose was not fully recovered. […] The same crystallization operation was carried out as for pure glucose above. […] Almost all other sugars and LiBr were however retained in the ethanol. […] In addition, xylose may negatively affect the crystallization of glucose.

[8] = cited from earlier work
[9] = over the investigated concentrations (0 to 5% w/v)
[10] = salt concentration 2% (w/v), FIG. 9A
[11] = butanol:hexane 5:5 (v/v), 15 extraction steps
[12] = butanol:hexane 6:4 (v/v), 13 extraction steps
[13] = butanol:hexane 6.5:3.5 (v/v), 12 extraction steps
[14] = butanol:hexane 7:3 (v/v), 10 extraction steps
[15] = butanol:hexane 7.5:2.5 (v/v), 9 extraction steps
[16] = butanol:hexane 8:2 (v/v), 9 extraction steps
[17] = butanol:hexane 8.5:1.5 (v/v), 8 extraction steps
[18] = butanol:hexane 9:1 (v/v), 7 extraction steps
[19] = butanol:hexane 10:0 (v/v), 6 extraction steps

CC(=O)O [CH3COOH, acetic acid] showed a Conversion [1] of 90%.
For [Br-].[Br-].[Ca+2] [CaBr2], the “conversion/hydrolysis of polysaccharides (in words)” value (“conversion/hydrolysis” for short) [2] was “complete conversion/hydrolysis”, the “CaBr2 left in the solution” value ([3]; butanol/hexane 5:5, 30 extractions, from 1500 mg) was 70 mg and the ethanol yield ([4]; compared with LiBr, FIG. 8) was “higher”. The “inhibition on sugar fermentation” value [4, 9] was “generally less inhibitory”, the “inhibition on sugar fermentation” value [4, 10] was “more inhibitory than NaCl and CaCl2” and the “inhibition on sugar fermentation” value ([4]; salt concentration 5% (w/v)) was “Inhibition became more significant”.
In the case of [Ca+2].[Cl-].[Cl-] [CaCl2, calcium chloride, reference compound], the Conversion [2] is reported as 70% and the “inhibition on sugar fermentation” value [4, 9] is reported as “does not appear to be inhibitory”.
O=P(O)(O)O [H3PO4, phosphoric acid] gave a Conversion [1] of 95%.
Cl [HCl, hydrochloric acid] gave a Conversion [1] of 100%.
In the case of O=[N+]([O-])O [HNO3, nitric acid], the Conversion [1] is reported as 100% and the “effectiveness in catalyzing the hydrolysis of spruce (in words)” value ([1]; 60% LiBr solution) is reported as “as effective as hydrochloric acid”.
With [Br-].[Li+] [LiBr, Lithium bromide] the Conversion [2] was 100%, the “conversion/hydrolysis” value [2] was “complete conversion/hydrolysis” and the “LiBr content left in the LiBr-glucose solution” value (from here on “LiBr content left”) ([5]; after 10 extractions, from 1500 mg) was 250 mg. The “LiBr content left” value ([5]; after 20 extractions) was 50 mg, the “LiBr content left” value ([5]; after 30 extractions) was 30 mg and the LiBr extracted ([5]; butanol:hexane 5:5) was 141 mg. The “LiBr/sugar (separation efficiency)” value ([5]; butanol:hexane 5:5) was 71, the LiBr extracted ([5]; butanol:hexane 6:4) was 152 mg and the “LiBr/sugar (separation efficiency)” value ([5]; butanol:hexane 6:4) was 51. The LiBr extracted ([5]; butanol:hexane 6.5:3.5) was 195 mg, the “LiBr/sugar (separation efficiency)” value ([5]; butanol:hexane 6.5:3.5) was 49 and the LiBr extracted ([5]; butanol:hexane 7:3) was 216 mg. The “LiBr/sugar (separation efficiency)” value ([5]; butanol:hexane 7:3) was 48, the LiBr extracted ([5]; butanol:hexane 7.5:2.5) was 231 mg and the “LiBr/sugar (separation efficiency)” value ([5]; butanol:hexane 7.5:2.5) was 46. The LiBr extracted ([5]; butanol:hexane 8:2) was 252 mg, the “LiBr/sugar (separation efficiency)” value ([5]; butanol:hexane 8:2) was 46 and the LiBr extracted ([5]; butanol:hexane 8.5:1.5) was 277 mg. For the same molecule, the “LiBr/sugar (separation efficiency)” value ([5]; butanol:hexane 8.5:1.5) was 40, the LiBr extracted ([5]; butanol:hexane 9:1) was 310 mg and the “LiBr/sugar (separation efficiency)” value ([5]; butanol:hexane 9:1) was 26. For the same molecule, the LiBr extracted ([5]; butanol:hexane 10:0) was 383 mg, the “LiBr/sugar (separation efficiency)” value ([5]; butanol:hexane 10:0) was 19 and the “inhibition on sugar fermentation” value [4, 10] was “more inhibitory than NaCl and CaCl2”. The “inhibition on sugar fermentation” value ([4]; salt concentration 5% (w/v)) was “the inhibition was significant” and the “inhibition on sugar fermentation” value ([4]; salt concentration below 5% (w/v), FIG. 7) was “did not have significant inhibition”.
In the case of [Cl-].[Li+] [LiCl, reference compound], the “conversion/hydrolysis” value [2] is reported as “complete conversion/hydrolysis” and the “temperature at which the solution starts crystallizing” value [6] is reported as 120 °C.
In the case of [Cl-].[Na+] [NaCl, reference compound], the “inhibition on sugar fermentation” value ([4]; salt concentration 5% (w/v)) is reported as “showed inhibition similar to LiBr”.
For O=C[C@H](O)[C@@H](O)[C@H](O)[C@H](O)CO [glucose], the Precipitated glucose ([7]; Entry 0: LiBr 0 mg, water 0 μL) was 400 mg, the Precipitated glucose ([7]; Entry 1: LiBr 50 mg, water 30 μL) was 330 mg and the Precipitated glucose ([7]; Entry 2: LiBr 50 mg, water 50 μL) was 330 mg. It also gave a Precipitated glucose ([7]; Entry 3: LiBr 50 mg, water 100 μL) of 330 mg, a Precipitated glucose ([7]; Entry 4: LiBr 50 mg, water 150 μL) of 330 mg and a Precipitated glucose ([7]; Entry 5: LiBr 100 mg, water 150 μL) of 320 mg. The Precipitated glucose ([7]; Entry 6: LiBr 150 mg, water 150 μL) was 300 mg, the Precipitated glucose ([7]; Entry 7: LiBr 200 mg, water 150 μL) was 250 mg and the “glucose extracted into butanol/hexane” value ([3]; butanol/hexane 5:5, 30 extractions) was 10 mg. The “glucose left in the solution” value ([3]; butanol/hexane 5:5, 30 extractions, from 200 mg) was 190 mg, the “glucose left in the aqueous phase” value ([3]; butanol/hexane 7:3, 10 extractions, 1500 mg CaBr2, 1 mL water, 200 mg glucose) was “approximately 95 mg” and the “glucose extracted into the butanol phase” value [5] was “about 10%”. For the same molecule, the “glucose extracted into the butanol phase” value ([5]; out of 320 mg glucose) was about 30 mg, the Glucose retained/extraction steps [5, 11] was 12.6 and the “Glucose retained after extraction” value [5, 11] was 190 mg. For the same molecule, the Glucose extracted ([5]; butanol:hexane 5:5) was 2 mg, the Glucose retained/extraction steps [5, 12] was 14.5 and the “Glucose retained after extraction” value [5, 12] was 189 mg. The Glucose extracted ([5]; butanol:hexane 6:4) was 3 mg, the Glucose retained/extraction steps [5, 13] was 16 and the “Glucose retained after extraction” value [5, 13] was 187 mg. For the same molecule, the Glucose extracted ([5]; butanol:hexane 6.5:3.5) was 4 mg, the Glucose retained/extraction steps [5, 14] was 18.5 and the “Glucose retained after extraction” value [5, 14] was 185 mg. The Glucose extracted ([5]; butanol:hexane 7:3) was 4.5 mg, the Glucose retained/extraction steps [5, 15] was 19.4 and the “Glucose retained after extraction” value [5, 15] was 175 mg. The Glucose extracted ([5]; butanol:hexane 7.5:2.5) was 5 mg, the Glucose retained/extraction steps [5, 16] was 17.8 and the “Glucose retained after extraction” value [5, 16] was 160 mg. For the same molecule, the Glucose extracted ([5]; butanol:hexane 8:2) was 5.5 mg, the Glucose retained/extraction steps [5, 17] was 17.5 and the “Glucose retained after extraction” value [5, 17] was 140 mg. For the same molecule, the Glucose extracted ([5]; butanol:hexane 8.5:1.5) was 7 mg, the Glucose retained/extraction steps [5, 18] was 16.5 and the “Glucose retained after extraction” value [5, 18] was 115 mg. The Glucose extracted ([5]; butanol:hexane 9:1) was 12 mg, the Glucose retained/extraction steps [5, 19] was 16 and the “Glucose retained after extraction” value [5, 19] was 95 mg. For the same molecule, the Glucose extracted ([5]; butanol:hexane 10:0) was 20 mg and the “solubility in n-butanol (in words)” value [8] was “insoluble”.
